{
  "source": "paper PMC7335359",
  "about": "“Design and Synthesis of Dihydroxamic Acids as HDAC6/8/10 Inhibitors” (Chemmedchem, 2020)",
  "key": {"HDAC6": {"target": "T1, HDAC6 (Homo sapiens, UniProt Q9UBN7)", "T1 construct": "purchased BPS Bioscience 50006", "T1 sequence (Q9UBN7 1-1215)": "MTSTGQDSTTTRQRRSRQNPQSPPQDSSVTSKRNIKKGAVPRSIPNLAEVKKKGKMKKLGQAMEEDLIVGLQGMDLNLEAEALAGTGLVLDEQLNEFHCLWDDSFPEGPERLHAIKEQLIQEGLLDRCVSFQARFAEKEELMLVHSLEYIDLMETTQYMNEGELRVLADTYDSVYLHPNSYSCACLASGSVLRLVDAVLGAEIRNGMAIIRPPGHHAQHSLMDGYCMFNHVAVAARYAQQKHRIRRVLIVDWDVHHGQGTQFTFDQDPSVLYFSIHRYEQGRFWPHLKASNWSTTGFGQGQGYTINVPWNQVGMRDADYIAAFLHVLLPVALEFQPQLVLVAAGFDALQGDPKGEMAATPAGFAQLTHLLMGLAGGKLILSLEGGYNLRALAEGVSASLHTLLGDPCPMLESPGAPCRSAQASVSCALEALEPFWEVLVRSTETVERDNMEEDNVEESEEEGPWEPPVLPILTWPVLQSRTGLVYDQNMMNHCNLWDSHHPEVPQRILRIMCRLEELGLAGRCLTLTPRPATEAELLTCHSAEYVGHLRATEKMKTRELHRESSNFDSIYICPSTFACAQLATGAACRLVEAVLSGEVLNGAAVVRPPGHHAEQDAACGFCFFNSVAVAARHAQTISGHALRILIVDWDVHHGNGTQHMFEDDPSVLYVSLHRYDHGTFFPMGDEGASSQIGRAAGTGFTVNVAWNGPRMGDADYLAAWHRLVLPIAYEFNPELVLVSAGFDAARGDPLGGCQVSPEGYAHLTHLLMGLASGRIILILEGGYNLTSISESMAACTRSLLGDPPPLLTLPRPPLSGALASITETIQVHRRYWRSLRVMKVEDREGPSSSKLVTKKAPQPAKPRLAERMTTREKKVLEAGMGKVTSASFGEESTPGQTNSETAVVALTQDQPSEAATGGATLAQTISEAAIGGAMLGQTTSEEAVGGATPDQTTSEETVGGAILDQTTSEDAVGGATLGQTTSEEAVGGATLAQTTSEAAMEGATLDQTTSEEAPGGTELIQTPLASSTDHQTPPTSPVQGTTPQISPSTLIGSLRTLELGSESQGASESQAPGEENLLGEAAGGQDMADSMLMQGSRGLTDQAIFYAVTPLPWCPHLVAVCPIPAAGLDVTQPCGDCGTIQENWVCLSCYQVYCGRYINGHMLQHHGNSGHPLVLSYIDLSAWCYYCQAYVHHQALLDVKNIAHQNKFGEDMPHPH", "assay": "HDAC-Glo I/II enzymatic assay, HDAC6", "assay_type": "biochemical", "conditions": "read-out: HDAC6 pIC50 (converted)", "protocol": "(§1) Inhibitors were tested at eight serial dilutions in triplicate ranging from 50 μM–86,7 pM (HDAC6) or 100 μM–8,67 nM (HDAC1,2,3,8). Drug dosing was performed from 10 mM and 0.1 mM DMSO stock solutions with a D300e Digital Dispenser (Tecan). HDACs (7 ng/mL for HDAC1, 10 ng/mL for HDAC2, 200 ng/mL for HDAC3/Ncor2 complex, 100 ng/mL for HDAC6, 200 ng/mL for HDAC8) and inhibitors were incubated together for 30 min at room temperature. After addition of the HDAC‐Glo™ I/II reagent, plates were shaken (800 rpm orbital shaker, 30 s), centrifuged (300 g, 1 min) and incubated at room temperature for 30 min. Luminescence was detected with a CLARIOstar (BMG Labtech) plate reader."}, "HDAC3/NcoR2 complex": {"target": "T2, HDAC3/NcoR2 complex (Homo sapiens, UniProt O15379)", "T2 construct": "purchased BPS Bioscience 50003", "T2 sequence (O15379 whole entry)": "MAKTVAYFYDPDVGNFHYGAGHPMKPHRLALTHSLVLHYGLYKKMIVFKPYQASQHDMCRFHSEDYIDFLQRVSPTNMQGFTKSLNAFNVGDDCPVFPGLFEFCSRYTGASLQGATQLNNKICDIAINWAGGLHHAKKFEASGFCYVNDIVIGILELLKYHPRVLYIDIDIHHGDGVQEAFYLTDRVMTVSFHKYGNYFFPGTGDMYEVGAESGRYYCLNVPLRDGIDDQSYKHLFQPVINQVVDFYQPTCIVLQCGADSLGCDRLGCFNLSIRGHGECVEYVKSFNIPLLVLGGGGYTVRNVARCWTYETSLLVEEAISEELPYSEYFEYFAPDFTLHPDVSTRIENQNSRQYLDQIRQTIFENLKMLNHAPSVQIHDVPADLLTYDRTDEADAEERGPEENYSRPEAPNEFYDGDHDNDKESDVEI", "T2 sequence (Q9Y618 395-489 partner limits assumed)": "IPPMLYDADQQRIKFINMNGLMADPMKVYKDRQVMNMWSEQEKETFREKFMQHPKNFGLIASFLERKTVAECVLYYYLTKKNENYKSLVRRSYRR", "assay": "HDAC-Glo I/II enzymatic assay, HDAC3", "assay_type": "biochemical", "conditions": "read-out: HDAC3 pIC50 (converted)", "protocol": "as §1"}},
  "data": [
    {"molecule": "O=C(NO)c1ccc(Cn2ccc3ccc(C(=O)NO)cc32)cc1", "note": "[Compound 3a]", "values": [
      {"measurement": "IC50", "setting": "HDAC6", "result": 18.2, "unit": "nM"},
      {"measurement": "IC50", "setting": "HDAC3/NcoR2 complex", "result": 5500, "unit": "nM"}
    ]},
    {"molecule": "CN(C)Cc1cn(Cc2ccc(C(=O)NO)cc2)c2cc(C(=O)NO)ccc12", "note": "[Compound 3b]", "values": [
      {"measurement": "IC50", "setting": "HDAC6", "result": 75.9, "unit": "nM"},
      {"measurement": "IC50", "setting": "HDAC3/NcoR2 complex", "result": 6920, "unit": "nM"}
    ]},
    {"molecule": "CN1CCc2c(c3ccc(C(=O)NO)cc3n2Cc2ccc(C(=O)NO)cc2)C1", "note": "[Compound 3c]", "values": [
      {"measurement": "IC50", "setting": "HDAC6", "result": 47.9, "unit": "nM"},
      {"measurement": "IC50", "setting": "HDAC3/NcoR2 complex", "result": 13500, "unit": "nM"}
    ]},
    {"molecule": "O=C(NO)c1ccc(Cc2c[nH]c3ccc(C(=O)NO)cc23)cc1", "note": "[Compound 3d]", "values": [
      {"measurement": "IC50", "setting": "HDAC6", "result": 22.4, "unit": "nM"},
      {"measurement": "IC50", "setting": "HDAC3/NcoR2 complex", "result": 6460, "unit": "nM"}
    ]},
    {"molecule": "CN(C)CCn1cc(Cc2ccc(C(=O)NO)cc2)c2cc(C(=O)NO)ccc21", "note": "[Compound 3e]", "values": [
      {"measurement": "IC50", "setting": "HDAC6", "result": 44.7, "unit": "nM"},
      {"measurement": "IC50", "setting": "HDAC3/NcoR2 complex", "result": 6610, "unit": "nM"}
    ]},
    {"molecule": "O=C(NO)c1ccc(Cn2ncc3ccc(C(=O)NO)cc32)cc1", "note": "[Compound 3f]", "values": [
      {"measurement": "IC50", "setting": "HDAC6", "result": 15.1, "unit": "nM"},
      {"measurement": "IC50", "setting": "HDAC3/NcoR2 complex", "result": 1320, "unit": "nM"}
    ]},
    {"molecule": "CN(C)Cc1nn(Cc2ccc(C(=O)NO)cc2)c2cc(C(=O)NO)ccc12", "note": "[Compound 3g]", "values": [
      {"measurement": "IC50", "setting": "HDAC6", "result": 30.2, "unit": "nM"},
      {"measurement": "IC50", "setting": "HDAC3/NcoR2 complex", "result": 6610, "unit": "nM"}
    ]}
  ]
}
